Source: patent US20240254510A1, “METHODS FOR GENERATING MECHANICALLY-RESPONSIVE CELLS AND USES THEREOF” (Washington University, priority 2021, published 2024)

How the values were obtained:
TRPV4 [1] = target: T1, TRPV4 (Sus scrofa, UniProt B3VP30); test: IL-1Ra production by mechanogenetic cartilage constructs (ELISA); type: cell-based, porcine; details: NFKBr-IL1Ra tissues, 1 nM GSK101 3 hours/day over 5 days vs DMSO
T1 construct: endogenous in cells; host or cells: primary porcine articular chondrocytes (femurs of pigs from a local abattoir)
Text: Synthetic mechanogenetic circuits respond to TRPV4 activation to drive transgene expression: TRPV4 activation in response to mechanical loading up-regulates a diverse group of targeted genes. On the basis of the TRPV4-activated signaling pathway, activation of the nuclear factor κ light chain enhancer of activated B cells (NF-κB) pathway was identified and up-regulation of the prostaglandin-endoperoxide synthase 2 (PTGS2) gene as two distinct avenues to construct TRPV4-responsive synthetic mechanogenetic gene circuits. […]
Osmotic stimulation—For calcium imaging studies, osmotic loading media were prepared using Hanks' balanced salt solution medium (Gibco). […] These media were titrated to hypo-osmotic media by adding distilled water and measured with a freezing point osmometer (Osmette 2007; Precision Systems). […]
Mechanogenetic circuit testing outcome measures: Assessing mechanogenetic tissue construct activation in IL-1Ra-producing constructs was measured with an enzyme-linked immunosorbent assay for mouse IL-1Ra (R&D Systems) according to the manufacturer's protocols. […]

TRPV4 [2] = test: RNA-sequencing of tissue engineered cartilage: mechanical loading, GSK101, IL-1α; type: cell-based; details: GSK101 TRPV4 activation, 24 hour time course
Procedure: RNA-sequencing was performed to assess mechanically-sensitive gene targets that are distinct from a cellular inflammation response. […] Targets of interest were selected as targets that were shared between stimulation to mechanical loading and GSK101 agonist activation of TRPV4 but not stimulated by IL-1α inflammation.

TRPV4 [3] = target: T1, TRPV4; test: Microarray transcriptomic profile of engineered cartilage after mechanical loading or GSK101; type: cell-based, porcine
Text: TRPV4 activation in chondrocytes induces transient anabolic and inflammatory signaling networks: Next, it was sought to understand the time course of specific downstream signaling pathways and GRNs regulated by mechanical activation of TRPV4 using microarray analysis. Because TRPV4 is a multimodal channel, downstream signaling is likely dependent on the activation mode as well as cell and tissue type. For these studies, primary porcine chondrocytes were cast in agarose to create engineered cartilage constructs and subjected to either compressive mechanical loading [10% sinusoidal peak-to-peak strain at 1 Hz for 3 hours as described previously] or pharmacologic stimulation with the TRPV4 agonist GSK101 (1 nM for 3 hours), or left unloaded (free-swelling controls), and measured the transcriptional activity at 0, 3, 12, and 20 hours following an initial round of stimulation and then at 24 and 72 hours after additional daily bouts of mechanical loading or GSK101 (n=3 per condition per time point; FIG. 3A). […] Up-regulation of these targets was immediate and subsided quickly, with transcript levels returning to baseline 12 to 20 hours after activation.
Microarray collection and analysis: After a 14-day preculture, engineered cartilage constructs (04 mm×2.25 mm) were stimulated under 10% compressive loading or 1 nM GSK101 for 3 hours per day for 3 days. Unstimulated controls (free-swelling) constructs were cultured under identical conditions. Immediately after stimulation, constructs were washed and then fed with culture medium. Constructs were snap-frozen in liquid N2 at 0, 3, 6, 12, 20, 24, and 72 hours after initial stimulation. Total RNA was extracted from the constructs using a pestle homogenizer and the Norgen Biotek RNA/protein purification plus kit. RNA quantity and quality were assessed with NanoDrop (Thermo Fisher Scientific) and the Agilent Bioanalyzer. Total RNA was processed using the Ambion WT expression labeling kit and the Porcine Gene 1.0 ST Array (Affymetrix). […]

Piezo1 = test: RNA-seq of tissue engineered cartilage after 80% strain or Yoda1 stimulation; type: cell-based; details: 80% strain or Yoda1, RNA-seq
Procedure: Tissue engineered cartilage tissues were either mechanically loaded to 80% strain or stimulated with the Piezo1 agonist Yoda1. Control tissues (FS group) were cultured in vehicle control media and left under free-swelling (non loaded) conditions. RNA-seq was used to assess the transcriptomic regulation to high mechanical loading or Yoda1-stimulation.
Volcano plot projections of gene targets that are differentially regulated by mechanical loading to 80% strain (FIG. 9 left graph) or Yoda1 stimulation (FIG. 9 right graph) display a range of targets that are regulated by Piezo1 stimulation (targets highlighted in red are |LFC|>1 and FDR (padj)<0.05).

T1 sequence (B3VP30 1-871): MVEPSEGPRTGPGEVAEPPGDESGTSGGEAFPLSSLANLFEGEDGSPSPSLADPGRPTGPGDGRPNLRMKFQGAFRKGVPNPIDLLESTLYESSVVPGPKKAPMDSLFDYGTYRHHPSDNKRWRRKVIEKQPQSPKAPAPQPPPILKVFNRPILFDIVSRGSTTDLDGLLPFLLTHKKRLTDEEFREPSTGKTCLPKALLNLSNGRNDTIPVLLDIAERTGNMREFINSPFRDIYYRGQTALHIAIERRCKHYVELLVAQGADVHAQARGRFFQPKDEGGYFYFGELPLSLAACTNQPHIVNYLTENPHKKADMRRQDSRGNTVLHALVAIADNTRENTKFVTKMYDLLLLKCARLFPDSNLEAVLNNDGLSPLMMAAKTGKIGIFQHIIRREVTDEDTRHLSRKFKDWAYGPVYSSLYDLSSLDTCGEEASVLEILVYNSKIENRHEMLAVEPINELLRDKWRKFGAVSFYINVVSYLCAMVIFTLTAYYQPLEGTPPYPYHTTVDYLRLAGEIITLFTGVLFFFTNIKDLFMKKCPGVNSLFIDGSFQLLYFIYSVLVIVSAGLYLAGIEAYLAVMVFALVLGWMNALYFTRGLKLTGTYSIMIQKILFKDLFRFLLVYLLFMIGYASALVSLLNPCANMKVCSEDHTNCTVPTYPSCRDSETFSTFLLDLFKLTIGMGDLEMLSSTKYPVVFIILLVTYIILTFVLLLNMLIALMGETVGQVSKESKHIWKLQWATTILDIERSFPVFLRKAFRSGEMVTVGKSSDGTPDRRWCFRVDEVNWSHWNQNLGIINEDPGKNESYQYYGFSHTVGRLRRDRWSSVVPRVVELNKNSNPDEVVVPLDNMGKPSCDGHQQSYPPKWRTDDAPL

Compound | circuit response to pharmacologic activation of TRPV4 (TRPV4 [1]) | regulation of FGF1, PMEPA1 and snora70 (TRPV4 [2]) | genes commonly responsive to both mechanical loading and pharmacologic activation of TRPV4 (TRPV4 [3]; 0, 24 and 72 hours) [genes] | transcripts repeatedly responsive to GSK101 supplementation (TRPV4 [3]; 0, 24 and 72 hours, daily bouts of 1 nM GSK101) [transcripts] | transcripts up-regulated under both mechanical loading and pharmacologic stimulation (TRPV4 [3]; first 20 hours after initial stimulation, GSK101 1 nM for 3 hours, vs unloaded controls) [transcripts] | gene targets similarly regulated by mechanical loading and Yoda1 stimulation (Piezo1)
CC(C)C[C@H](NC(=O)c1cc2ccccc2s1)C(=O)N1CCN(C(=O)[C@H](CO)NS(=O)(=O)c2ccc(Cl)cc2Cl)CC1 [GSK101] | activated the NFKBr-IL1Ra circuit | significantly upregulated | 15 | 112 | 43 | –
Clc1cccc(Cl)c1CSc1nnc(-c2cnccn2)s1 [Yoda1] | – | – | – | – | – | ADAMTS1, IGSF9B, PTGS2, NR4A2, LOC100512181, NR4A1, INHBA, and CSRNP2
